Experiment [1] deals with U-87 MG. The experiment is described as follows: Antiproliferative activity against human U87 cells incubated for 48 hrs in presence of (2S,4R)-1-((S)-2-(5-azidopentanamido)-3,3-dimethylbutanoyl)-4-hydroxy-N-(4-(4-methylthiazol-5-yl)benzyl)pyrrolidine-2-carboxamide by MTT assay. In kind it is functional, cell-based, U-87MG ATCC. On the technique in general: Formazan colour is commonly taken as a measure of viable cells.

Experiment [2] concerns U-87 MG. The experiment in a line: Induction of apoptosis in human U87 cells assessed as viable cells at 1 uM incubated for 48 hrs in presence of 4-(4-(3-(4-chloro-3-(trifluoromethyl)phenyl)ureido)phenoxy)-N-(prop-2-yn-1-yl)picolinamide by Annexin V-FLTC/PI staining based flow cytometry (reference value: 86.74 %). As to conditions: read-out: Activity. In kind it is functional, U-87MG ATCC. (In general: A flow cytometer gives signals particle by particle.)

As for `C#CCNC(=O)c1cc(Oc2ccc(NC(=O)Nc3ccc(Cl)c(C(F)(F)F)c3)cc2)ccn1`, the IC50 in experiment [1] turned out to be 16 µM.
As to `[N-]=[N+]=NCCCC(=O)Nc1cccc2c1C(=O)N(C1CCC(=O)NC1=O)C2=O` (configuration not stated), the viability at 1 µM in experiment [2] was 81.6%.

One may read the IC50 as the midpoint of a concentration-inhibition curve.
